Measurements as given in PubChem BioAssay (NCI).
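The compound was tested at five concentrations on cells cultured in 96-well plates, with a 48-hour exposure period. The concentration for 50% growth inhibition is given as GI50. TGI: concentration producing complete growth inhibition.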

Legend:
Assay in all cases: NCI anticancer screen, dose series, 48 h
SNB-75 CNS = tested on: SNB-75 CNS
SK-OV-3 ovarian = tested on: SK-OV-3 ovarian
MDA-MB-231 breast = tested on: MDA-MB-231 breast
NCI-H522 lung = tested on: NCI-H522 lung
CCRF-CEM leukemia = tested on: CCRF-CEM leukemia
UO-31 renal = tested on: UO-31 renal
M14 melanoma = tested on: M14 melanoma
MOLT-4 leukemia = tested on: MOLT-4 leukemia
RPMI-8226 leukemia = tested on: RPMI-8226 leukemia
T-47D breast = tested on: T-47D breast
SF-268 CNS = tested on: SF-268 CNS
HCT-15 colon = tested on: HCT-15 colon
RXF 393 renal = tested on: RXF 393 renal
SK-MEL-2 melanoma = tested on: SK-MEL-2 melanoma
KM12 colon = tested on: KM12 colon
SK-MEL-5 melanoma = tested on: SK-MEL-5 melanoma
BT-549 breast = tested on: BT-549 breast
HOP-92 NSCLC = tested on: HOP-92 NSCLC
MCF7 breast = tested on: MCF7 breast
UACC-257 melanoma = tested on: UACC-257 melanoma
OVCAR-5 ovarian = tested on: OVCAR-5 ovarian
NCI-H23 lung = tested on: NCI-H23 lung
EKVX NSCLC = tested on: EKVX NSCLC
SF-539 CNS = tested on: SF-539 CNS
OVCAR-3 ovarian = tested on: OVCAR-3 ovarian
SNB-19 CNS = tested on: SNB-19 CNS
SR leukemia = tested on: SR leukemia
786-0 renal = tested on: 786-0 renal
UACC-62 melanoma = tested on: UACC-62 melanoma
OVCAR-4 ovarian = tested on: OVCAR-4 ovarian
MDA-MB-435 = tested on: MDA-MB-435
HL-60(TB) leukemia = tested on: HL-60(TB) leukemia
OVCAR-8 ovarian = tested on: OVCAR-8 ovarian
MALME-3M melanoma = tested on: MALME-3M melanoma
COLO 205 colon = tested on: COLO 205 colon
MDA-MB-468 breast = tested on: MDA-MB-468 breast
K-562 leukemia = tested on: K-562 leukemia
HS 578T breast = tested on: HS 578T breast
U251 CNS = tested on: U251 CNS
HOP-62 NSCLC = tested on: HOP-62 NSCLC
CAKI-1 renal = tested on: CAKI-1 renal
HCC-2998 colon = tested on: HCC-2998 colon
PC-3 prostate = tested on: PC-3 prostate
SF-295 CNS = tested on: SF-295 CNS
A498 renal = tested on: A498 renal
SK-MEL-28 melanoma = tested on: SK-MEL-28 melanoma
IGROV1 ovarian = tested on: IGROV1 ovarian
TK-10 renal = tested on: TK-10 renal
LOX IMVI melanoma = tested on: LOX IMVI melanoma
HCT-116 colon = tested on: HCT-116 colon
DU-145 prostate = tested on: DU-145 prostate
HT29 colon = tested on: HT29 colon
SN12C renal = tested on: SN12C renal
NCI-H226 lung = tested on: NCI-H226 lung

CN1CCN(C(=O)CCN(C(=O)Oc2cc3c(c4ccccc24)[C@H](CCl)CN3C(=O)c2cc3cc(OCCCN4CCC4)ccc3[nH]2)[C@H]2CCSSC2)CC1
GI50 (SNB-75 CNS): 497 nM
TGI (SNB-75 CNS): 2320 nM
GI50 (SK-OV-3 ovarian): 313 nM
TGI (SK-OV-3 ovarian): 7080 nM
GI50 (MDA-MB-231 breast): 402 nM
TGI (MDA-MB-231 breast): 1450 nM
GI50 (NCI-H522 lung): 254 nM
TGI (NCI-H522 lung): 1280 nM
GI50 (CCRF-CEM leukemia): 269 nM
TGI (CCRF-CEM leukemia): 3510 nM
GI50 (UO-31 renal): 190 nM
TGI (UO-31 renal): 480 nM
GI50 (M14 melanoma): 195 nM
TGI (M14 melanoma): 653 nM
GI50 (MOLT-4 leukemia): 231 nM
TGI (MOLT-4 leukemia): 1580 nM
GI50 (RPMI-8226 leukemia): 570 nM
TGI (RPMI-8226 leukemia): 3870 nM
GI50 (T-47D breast): 570 nM
TGI (T-47D breast): 2400 nM
GI50 (SF-268 CNS): 281 nM
TGI (SF-268 CNS): 1630 nM
GI50 (HCT-15 colon): 209 nM
TGI (HCT-15 colon): 1350 nM
GI50 (RXF 393 renal): 189 nM
TGI (RXF 393 renal): 454 nM
GI50 (SK-MEL-2 melanoma): 345 nM
TGI (SK-MEL-2 melanoma): 1060 nM
GI50 (KM12 colon): 308 nM
TGI (KM12 colon): 1510 nM
GI50 (SK-MEL-5 melanoma): 152 nM
TGI (SK-MEL-5 melanoma): 336 nM
GI50 (BT-549 breast): 1020 nM
TGI (BT-549 breast): 2460 nM
GI50 (HOP-92 NSCLC): 997 nM
TGI (HOP-92 NSCLC): 3640 nM
GI50 (MCF7 breast): 49.5 nM
TGI (MCF7 breast): 1430 nM
GI50 (UACC-257 melanoma): 378 nM
TGI (UACC-257 melanoma): 1810 nM
GI50 (OVCAR-5 ovarian): 390 nM
TGI (OVCAR-5 ovarian): 1390 nM
GI50 (NCI-H23 lung): 65.7 nM
TGI (NCI-H23 lung): 211 nM
GI50 (EKVX NSCLC): 351 nM
TGI (EKVX NSCLC): 1550 nM
GI50 (SF-539 CNS): 325 nM
TGI (SF-539 CNS): 1200 nM
GI50 (OVCAR-3 ovarian): 426 nM
TGI (OVCAR-3 ovarian): 1880 nM
GI50 (SNB-19 CNS): 272 nM
TGI (SNB-19 CNS): 1650 nM
GI50 (SR leukemia): 66.1 nM
TGI (SR leukemia): 906 nM
GI50 (786-0 renal): 330 nM
TGI (786-0 renal): 1140 nM
GI50 (UACC-62 melanoma): 115 nM
TGI (UACC-62 melanoma): 294 nM
GI50 (OVCAR-4 ovarian): 1360 nM
TGI (OVCAR-4 ovarian): 2780 nM
GI50 (MDA-MB-435): 285 nM
TGI (MDA-MB-435): 1170 nM
GI50 (HL-60(TB) leukemia): 390 nM
TGI (HL-60(TB) leukemia): 2030 nM
GI50 (OVCAR-8 ovarian): 136 nM
TGI (OVCAR-8 ovarian): 500 nM
GI50 (MALME-3M melanoma): 232 nM
TGI (MALME-3M melanoma): 745 nM
GI50 (COLO 205 colon): 431 nM
TGI (COLO 205 colon): 2260 nM
GI50 (MDA-MB-468 breast): 148 nM
TGI (MDA-MB-468 breast): 442 nM
GI50 (K-562 leukemia): 225 nM
TGI (K-562 leukemia): 1590 nM
GI50 (HS 578T breast): 1230 nM
TGI (HS 578T breast): 3170 nM
GI50 (U251 CNS): 100 nM
TGI (U251 CNS): 377 nM
GI50 (HOP-62 NSCLC): 146 nM
TGI (HOP-62 NSCLC): 678 nM
GI50 (CAKI-1 renal): 150 nM
TGI (CAKI-1 renal): 509 nM
GI50 (HCC-2998 colon): 146 nM
TGI (HCC-2998 colon): 334 nM
GI50 (PC-3 prostate): 378 nM
TGI (PC-3 prostate): 2070 nM
GI50 (SF-295 CNS): 107 nM
TGI (SF-295 CNS): 291 nM
GI50 (A498 renal): 199 nM
TGI (A498 renal): 386 nM
GI50 (SK-MEL-28 melanoma): 208 nM
TGI (SK-MEL-28 melanoma): 502 nM
GI50 (IGROV1 ovarian): 545 nM
TGI (IGROV1 ovarian): 2450 nM
GI50 (TK-10 renal): 1560 nM
TGI (TK-10 renal): 3570 nM
GI50 (LOX IMVI melanoma): 85.5 nM
TGI (LOX IMVI melanoma): 314 nM
GI50 (HCT-116 colon): 234 nM
TGI (HCT-116 colon): 1040 nM
GI50 (DU-145 prostate): 165 nM
TGI (DU-145 prostate): 1250 nM
GI50 (HT29 colon): 211 nM
TGI (HT29 colon): 963 nM
GI50 (SN12C renal): 527 nM
TGI (SN12C renal): 9020 nM
GI50 (NCI-H226 lung): 148 nM
TGI (NCI-H226 lung): 1160 nM
